Test results published in patent US12673954B2 (BRISTOL-MYERS SQUIBB COMPANY, priority 2021, dated 2026).
Read-outs that look alike come from different tables or passages of the source.

What was measured:
[1] = tested on: IRF pathway, THP1-Dual™ cells; experiment: STING reporter assay in THP1-Dual cells, IRF pathway (Lucia luciferase, QUANTI-Luc); format: cell-based, human; conditions: THP1-Dual cells, 10% human plasma, 20 hours, Lucia luciferase, 100% activation = 100 μM cGAMP, read-out: IRF (EC50 μM)
From the text: (§1) THP1-Dual™ cells were derived from the human THP-1 monocyte cell line by stable integration of two inducible reporter constructs. To this end, THP1-Dual™ cells allow the simultaneous study of the NF-κB pathway, by monitoring the activity of SEAP, and the IRF pathway by assessing the activity of a secreted luciferase (Lucia). Both reporter proteins are readily measurable in the cell culture supernatant when using QUANTI-Blue™, a SEAP detection reagent, and QUANTI-Luc™, a luciferase detection reagent.
(§2) THP1-Dual™ cells induce the activation of NF-κB in response to STING agonists. They also trigger the IRF pathway upon stimulation with STING agonists, such as cGAMP. Here, the THP-1-Dual cells were used to assess STING specific binders for function on the cellular level.
(§3) Serial dilutions of compounds in DMSO were added to low volume 384 well plates at 100 nl/well using an ECHO acoustic dispenser (Labcyte, model 550) to achieve final starting concentration of 100 μM in cell suspension. […] One column of the plate was reserved for treatment with cGAMP at 100 μM for 100% activation calculation and one column for no treatment (DMSO only) for baseline activation. Plates were then incubated in 37° C. incubator at 5% CO2 for 20 hours.
(§4) Plates were read on the Envision (Perkin Elmer) at 620 nm wavelength (OD620). In the luciferase assay, 5 μl of Quantiluc (Invivogen, Rep-qlc2) is added to white 384 well plates seeded with THP1 cells and read at 5 minutes on the Envision (Perkin Elmer) using a luminescence protocol (RLU). 100% activation was determined by value (RLU) of THP-1 Dual STING cells stimulated with 100 μM cGAMP (Invivogen, cat #TLRL-NACGA23-5).

[2] = tested on: NF-κB pathway, THP1-Dual™ cells; experiment: STING reporter assay in THP1-Dual cells, NF-κB pathway (SEAP, QUANTI-Blue); format: cell-based, human; conditions: THP1-Dual cells, 10% human plasma, 20 hours, SEAP, 100% activation = 100 μM cGAMP, read-out: NFkB (EC50 μM)
From the text: as §1, §2, §3, §4

Structure (SMILES) | EC50 [1] [µM] | EC50 [2] [µM] | EC50 ([1]; Homo sapiens, THP1-Dual, 20 h) [µM] | EC50 ([2]; Homo sapiens, THP1-Dual, 20 h) [µM]
CC(OC(=O)c1cc(Br)cc2cc(CNC(=O)c3cnn4cccnc34)oc12)C(F)(F)F (single isomer, unassigned) [EXAMPLE 342, 1,1,1-Trifluoropropan-2-yl 5-bromo-2-((pyrazolo[1,5-a]pyrimidine-3-carboxamido)methyl)benzofuran-7-carboxylate] | 7.2 | 6 |  | 
O=C(OCC(F)F)c1cccc2cc(CN3CCc4ccncc4C3=O)oc12 [EXAMPLE 214, 2,2-Difluoroethyl 2-((1-oxo-3,4-dihydro-2,7-naphthyridin-2(1H)-yl)methyl)benzofuran-7-carboxylate] |  |  | 8.2 | 9.3
COC(=O)c1cc(C)cc2cc(CNC(=O)c3c(N)nn4cccnc34)oc12 [Example 93, Methyl 2-((2-aminopyrazolo[1,5-a]pyrimidine-3-carboxamido)methyl)-5-methylbenzofuran-7-carboxylate] |  |  | 3.7 | 6
CC(C)(C)OC(=O)N1CC(OC(=O)c2cc(Cl)cc3cc(CNC(=O)c4cnn5cccnc45)oc23)C1 [EXAMPLE 247, Tert-butyl 3-((5-chloro-2-((pyrazolo[1,5-a]pyrimidine-3-carboxamido)methyl)benzofuran-7-carbonyl)oxy)azetidine-1-carboxylate] |  |  | 9 | 13
CC(OC(=O)c1ccc(Cl)c2cc(CNC(=O)c3cnn4cccnc34)oc12)C(F)(F)F (stereo not drawn) [EXAMPLE 311, 1,1,1-Trifluoropropan-2-yl 4-chloro-2-((pyrazolo[1,5-a]pyrimidine-3-carboxamido)methyl)benzofuran-7-carboxylate] | 2 | 2.3 |  | 
COC(=O)c1cc(F)cc2cc(Cn3ccc4ncncc4c3=O)oc12 [EXAMPLE 37, Methyl 5-fluoro-2-((5-oxopyrido[4,3-d]pyrimidin-6(5H)-yl)methyl)benzofuran-7-carboxylate] |  |  | 11 | 12
COC(=O)c1cc(Cl)cc2cc(Cn3ccc4ncncc4c3=O)oc12 [Example 75, Methyl 5-chloro-2-((5-oxopyrido[4,3-d]pyrimidin-6(5H)-yl)methyl)benzofuran-7-carboxylate] |  |  | 22 | 37
CC(OC(=O)c1cc(F)cc2cc(Cn3cnc4ccncc4c3=O)oc12)C(F)(F)F (stereo not drawn) [EXAMPLE 365, 1,1,1-Trifluoropropan-2-yl 5-fluoro-2-((4-oxopyrido[4,3-d]pyrimidin-3(4H)-yl)methyl)benzofuran-7-carboxylate] | 7.5 | 4.4 |  | 
COC(=O)c1cc(Br)cc2cc(CN3CCc4ccncc4C3=O)oc12 [Example 81, Methyl 5-bromo-2-((1-oxo-3,4-dihydro-2,7-naphthyridin-2(1H)-yl)methyl)benzofuran-7-carboxylate] |  |  | 16 | 22
Cc1cc(C(=O)OCC(F)(F)F)c2oc(CNC(=O)c3cnn4cccnc34)c(Cl)c2c1 [EXAMPLE 299, 2,2,2-Trifluoroethyl 3-chloro-5-methyl-2-((pyrazolo[1,5-a]pyrimidine-3-carboxamido)methyl)benzofuran-7-carboxylate] |  |  | 0.28 | 0.33
CCOC(OC(=O)c1cc(F)cc2cc(CNC(=O)c3cnn4cccnc34)oc12)C(F)F (single isomer, unassigned) [EXAMPLE 323, 1-Ethoxy-2,2-difluoroethyl 5-fluoro-2-((pyrazolo[1,5-a]pyrimidine-3-carboxamido)methyl)benzofuran-7-carboxylate] |  | 0.7 | 0.75 | 
O=C(OC1CC(c2ccc(F)cc2)C1)c1cc(Cl)cc2cc(CNC(=O)c3cnn4cccnc34)oc12 (single isomer, unassigned) [EXAMPLE 334, 3-(4-Fluorophenyl)cyclobutyl 5-chloro-2-((pyrazolo[1,5-a]pyrimidine-3-carboxamido)methyl)benzofuran-7-carboxylate] | 16 | 23 |  | 
COC(=O)c1ccc(O)c2cc(CNC(=O)c3cnn4cccnc34)oc12 [EXAMPLE 34, Methyl 4-hydroxy-2-((pyrazolo[1,5-a]pyrimidine-3-carboxamido)methyl)benzofuran-7-carboxylate] |  |  | 79 | > 100
COC(=O)c1cc(C)cc2c(Cl)c(CNC(=O)c3cncc4cccnc34)oc12 [EXAMPLE 118, methyl 2-((1,6-naphthyridine-8-carboxamido)methyl)-3-chloro-5-methylbenzofuran-7-carboxylate] |  |  | 0.3 | 0.37
Cc1cc(C(=O)OC2CC(F)(F)C2)c2oc(CNC(=O)c3cnn4cccnc34)cc2c1 [EXAMPLE 275, 3,3-Difluorocyclobutyl 5-methyl-2-((pyrazolo[1,5-a]pyrimidine-3-carboxamido)methyl)-benzofuran-7-carboxylate] |  |  | 0.94 | 0.72
O=C(Oc1ccccc1)c1cc(Cl)cc2cc(CNC(=O)c3cnn4cccnc34)oc12 [EXAMPLE 254, Phenyl 5-chloro-2-((pyrazolo[1,5-a]pyrimidine-3-carboxamido)methyl)benzofuran-7-carboxylate] |  |  | 0.87 | 0.88
COC(=O)c1ccc(C)c2cc(CNC(=O)c3cnn4cccnc34)oc12 [EXAMPLE 31, Methyl 4-methyl-2-((pyrazolo[1,5-a]pyrimidine-3-carboxamido)methyl)benzofuran-7-carboxylate] |  |  | 1.1 | 1.6
COC(=O)c1c(O)c(Cl)cc2cc(CNC(=O)c3cnn4cccnc34)oc12 [EXAMPLE 127, Methyl 5-chloro-6-hydroxy-2-((pyrazolo[1,5-a]pyrimidine-3-carboxamido)methyl)benzofuran-7-carboxylate] |  |  | 4.7 | 5.6
COC(OC(=O)c1cc(F)cc2cc(CNC(=O)c3cnn4cccnc34)oc12)C(F)(F)F (single isomer, unassigned) [EXAMPLE 319, 2,2,2-Trifluoro-1-methoxyethyl 5-fluoro-2-((pyrazolo[1,5-a]pyrimidine-3-carboxamido)methyl)benzofuran-7-carboxylate] |  |  | 2.4 | 2.5
O=C(OCC(F)(F)F)c1cccc2c(Cl)c(CNC(=O)c3cnn4cccnc34)oc12 [EXAMPLE 223, 2,2,2-Trifluoroethyl 3-chloro-2-((pyrazolo[1,5-a]pyrimidine-3-carboxamido)methyl)benzofuran-7-carboxylate] |  |  | 0.67 | 0.62
COC(=O)c1cccc2cc(Cn3cccc(-c4cnco4)c3=O)oc12 [EXAMPLE 17, Methyl 2-((3-(oxazol-5-yl)-2-oxopyridin-1(2H)-yl)methyl)benzofuran-7-carboxylate] |  |  | 48 | 73
COC(=O)c1cc(C)cc2cc(Cn3ccc4ccncc4c3=O)oc12 [Example 85, Methyl 5-methyl-2-((1-oxo-2,7-naphthyridin-2(1H)-yl)methyl)benzofuran-7-carboxylate] |  |  | 3.5 | 3.6
C[C@@H](OC(=O)c1cc(F)cc2c(Cl)c(CNC(=O)c3cnn4cccnc34)oc12)C(F)(F)F [EXAMPLE 288, (R)-1,1,1-Trifluoropropan-2-yl 3-chloro-5-fluoro-2-((pyrazolo[1,5-a]pyrimidine-3-carboxamido)methyl)benzofuran-7-carboxylate] |  |  | 0.36 | 0.36
CC(OC(=O)c1cccc2cc(CN3CCc4ccncc4C3=O)oc12)C(F)(F)F (single isomer, unassigned) [EXAMPLE 307, 1,1,1-Trifluoropropan-2-yl 2-((1-oxo-3,4-dihydro-2,7-naphthyridin-2(1H)-yl)methyl)benzo-furan-7-carboxylate] | 7.7 | 8.9 |  | 
O=C(OCC(F)(F)F)c1cccc2cc(CNC(=O)c3cnn4cccnc34)oc12 [EXAMPLE 217, 2,2,2-Trifluoroethyl 2-((pyrazolo[1,5-a]pyrimidine-3-carboxamido)methyl)benzofuran-7-carboxylate] |  |  | 1.3 | 1.6
CC(OC(=O)c1cc(F)cc2cc(CNC(=O)c3cnn4cccnc34)oc12)C(F)(F)F (single isomer, unassigned) [EXAMPLE 318, 1,1,1-Trifluoropropan-2-yl 5-fluoro-2-((pyrazolo[1,5-a]pyrimidine-3-carboxamido)methyl)benzofuran-7-carboxylate] | 4.3 | 4.5 |  | 
CONC(=O)c1cc(C)cc2c(Cl)c(CNC(=O)c3cnn4cccnc34)oc12 [EXAMPLE 408, N-((3-chloro-7-(methoxycarbamoyl)-5-methylbenzofuran-2-yl)methyl)pyrazolo[1,5-a]pyrimidine-3-carboxamide] |  |  | 0.91 | 1.2
